What was measured:
S. aureus [1] = test: Agar diffusion test of loaded BNC fleeces against S. aureus; type: cell-based, Staphylococcus aureus
Description: The evaluation of the antibacterial activity of B. subtilis and B. megaterium loaded—BNC against gram-positive S. aureus was determined by an agar diffusion test. Therefore, the bacterial suspensions of B. subtilis and S. aureus were prepared in TSB broth medium as described before. […] 3 BNC fleeces were loaded using B. subtilis suspension in TSB medium, and 3 BNC fleeces were loaded using B. subtilis suspension in saline. Further 3 BNC fleeces were loaded using the B. subtilis free-supernatant, 3 BNC fleeces were loaded with gentamycin as positive control, and 3 BNC fleeces with isotonic saline as negative control. The OD600 of S. aureus was adjusted to 0.5 McFarland using sterilized saline NaCl 0.9% and the optical density spectrophotometer (Biophotometer) was determined. 20 μl of S. aureus was spread on the surface of Mueller-Hinton agar plate by a sterilized glass spreader. The last control and loaded BNC fleeces were added onto surface of the Mueller Hinton agar: 1. Negative control: saline-loaded BNC 2. Positive control: gentamicin-loaded BNC 3. B. subtilis-loaded BNC in TSB medium 4. B. subtilis-loaded BNC in saline 5. B. subtilis-free supernatant-loaded BNC.

S. aureus [2] = test: Agar well diffusion test against S. aureus (without BNC); type: cell-based, Staphylococcus aureus
Description: For the agar diffusion test the OD600 of B. megaterium and B. subtilis was adjusted to 0.1 McFarland using sterilized saline NaCl 0.9%. The OD600 of S. aureus was adjusted to 0.5 McFarland using sterilized saline NaCl 0.9%. 20 μl of S. aureus was spread on the surface of Mueller-Hinton agar plate by a sterilized glass spreader. The wells are […] on the agar plate using the back side of a 1 ml pipette tip. A small volume of Mueller-Hinton agar was melted in boiling water bath, then 100 μl of it was used to close the bottom of each created well. After solidification of the agar in the bottom of the wells, the wells were filled with 100 μl of: Negative control, sterilized saline NaCl 0.9%, Positive control, gentamicin 300 μg/ml, B. megaterium or B. subtilis-free supernatant, B. megaterium or B. subtilis suspension.

## gentamicin [Gentamycin]
S. aureus [1]
  inhibition effect on S. aureus, on BNC - injection technique: + (by detection of inhibition zone > 2 mm)
  inhibition effect on S. aureus, on BNC - spray technique: + (by detection of inhibition zone > 2 mm)
  inhibition effect on S. aureus, on BNC - vortex technique: + (by detection of inhibition zone > 2 mm)
S. aureus [2]; agar well diffusion, 100 μl per well, 37° C., 24 h
  inhibition zone (in words): inhibition zone
S. aureus [2]; diffusion test
  inhibition effect on S. aureus, Without BNC: + (by detection of inhibition zone > 2 mm)
